The values below come from publication PMC12420824, “Discovery of a selective alpha-kinase 1 inhibitor for the rare genetic disease ROSAH syndrome” (Nature Communications, 2025).

Several values for one entry are separate records, joined by “and”; a condition that tells them apart may be missing. Equal values may be shown once.

The target in assay [1] is T1, full-length ALPK1 (Homo sapiens, UniProt Q96QP1).
T1 construct: recombinant full-length ALPK1 kinase purified from Sf9 cells; 3xFlag (C); made in house; host or cells: Sf9 insect cells (baculovirus, pFAST-BAC)
T1 sequence (Q96QP1 whole entry): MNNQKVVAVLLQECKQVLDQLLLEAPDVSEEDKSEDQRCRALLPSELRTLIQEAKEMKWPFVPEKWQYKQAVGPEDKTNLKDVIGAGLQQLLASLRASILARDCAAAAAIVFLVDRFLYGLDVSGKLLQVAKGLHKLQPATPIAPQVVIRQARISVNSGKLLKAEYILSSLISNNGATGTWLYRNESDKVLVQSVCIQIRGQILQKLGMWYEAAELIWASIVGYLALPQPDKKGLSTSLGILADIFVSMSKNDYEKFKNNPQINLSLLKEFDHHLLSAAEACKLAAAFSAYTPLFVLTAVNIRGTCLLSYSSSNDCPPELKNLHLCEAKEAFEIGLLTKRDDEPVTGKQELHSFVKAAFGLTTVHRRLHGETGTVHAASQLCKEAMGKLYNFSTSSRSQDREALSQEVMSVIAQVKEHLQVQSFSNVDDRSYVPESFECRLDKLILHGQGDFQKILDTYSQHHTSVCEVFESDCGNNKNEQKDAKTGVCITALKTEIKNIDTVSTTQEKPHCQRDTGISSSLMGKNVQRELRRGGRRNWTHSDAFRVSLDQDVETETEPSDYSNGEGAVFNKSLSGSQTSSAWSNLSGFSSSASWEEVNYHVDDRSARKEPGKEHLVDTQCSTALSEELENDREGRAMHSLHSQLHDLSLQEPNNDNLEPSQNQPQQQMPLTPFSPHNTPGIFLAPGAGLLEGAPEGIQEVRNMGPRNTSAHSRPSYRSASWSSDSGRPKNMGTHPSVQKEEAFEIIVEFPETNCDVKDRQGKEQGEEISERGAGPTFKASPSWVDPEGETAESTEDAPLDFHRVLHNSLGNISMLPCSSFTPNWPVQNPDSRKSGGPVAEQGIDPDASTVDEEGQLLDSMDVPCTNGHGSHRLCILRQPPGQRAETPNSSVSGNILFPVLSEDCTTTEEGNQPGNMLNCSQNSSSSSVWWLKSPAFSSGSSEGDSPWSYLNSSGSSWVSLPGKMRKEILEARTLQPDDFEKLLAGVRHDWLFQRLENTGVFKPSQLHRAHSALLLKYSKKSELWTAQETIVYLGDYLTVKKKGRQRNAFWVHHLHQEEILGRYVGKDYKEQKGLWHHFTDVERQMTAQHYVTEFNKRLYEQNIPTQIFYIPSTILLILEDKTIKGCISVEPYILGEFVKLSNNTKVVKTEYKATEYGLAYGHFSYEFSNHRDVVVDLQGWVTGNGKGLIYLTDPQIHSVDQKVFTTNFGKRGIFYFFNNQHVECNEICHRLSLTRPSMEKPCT
As to the kind of experiment: Thermal shift assay (TSA). The class given is binding. Particulars: for increase in melting temperature (Tm): pilot TSA screen / assay validation; for TSA Tm Increase: compound at 10 μM. The method, then:
A small molecule library containing ~160,000 compounds (HTS Diversity V2) was prepared by WuXi AppTec (Shanghai, China) in 384 well thin-wall qPCR plates, with 20 nL of 10 mM compound preparations in each well. On each screening plate, 2 columns of wells were loaded with 20 nL of pure DMSO to leave spaces for negative controls (no compounds) and the positive control (AS-252424). […] The mixture was spun down at 1000 rpm for 1 min, then immediately applied to a protein melting reaction on a Roche LightCycler® 480 II Real-time PCR system, heating the mixture from 30 °C to 50 °C at the ramp rate of 0.02 °C/s while continuously acquiring the fluorescence signal. The melting temperature (Tm) of the ALPK1 protein with or without each compound was calculated using the Protein Thermal Shift™ Analysis Desktop Software v1.2 (Thermo Fisher Scientific). For positive control wells, 40 μM AS-252424 in 5 μl compound solvent was added manually and used as a positive control in the thermal shift screening.

Assay [2] concerns the target T1, full-length ALPK1. As to the kind of experiment: Surface plasmon resonance (SPR). The class given is binding. The conditions noted are these: with 500 nM ADP-L-heptose. As to the method:
SPR assays were conducted on a Biacore 8 K (Cytiva). […] For analyte testing, flow rates were maintained at 30 µL/min. […] The data collection rate was 10 Hz, and all data were double referenced and solvent corrected. Analysis was performed using Biacore Insight Evaluation software version 5. The 1:1 kinetic binding affinity models were used to fit the data, and all parameters were fitted globally.
A general note: Surface plasmon resonance follows binding to a sensor surface in real time, without labels.

Assay [3] concerns the target T2, ALPK1 (Homo sapiens, UniProt Q96QP1). As to the kind of experiment: TR-FRET (HTRF) kinase assay. Particulars: 6.25 µM ATP, 20 nM ADP-D-heptose. (Time-resolved FRET reads energy transfer from a long-lived donor to a nearby acceptor.)
Protocol: (§1) The 10 µL kinase reactions were allowed to proceed for 1.5 h at 27 °C. Kinase reactions were terminated by adding 10 µL of the HTRF KinEASE detection kit buffer (Cisbio, Bedford, MA, USA; 62SDBRDF) containing monoclonal anti-HA-Eu cryptate (Cisbio; 610HAKLB) and monoclonal Anti HA-d2 to each well. TIFA phosphorylation levels were monitored through the detection of oligomerization signals generated upon TIFAsome assembly. Both donor and acceptor antibodies recognize TIFA and will generate a TR-FRET signal when bound to the same TIFA oligomer formed upon TIFA phosphorylation. […] The TR-FRET signals were calculated as the ratio of the acceptor and donor emission signals with the formula below:
(§2) ALPK1 kinase activity was calculated as follows: % Activity = 100% × (TR-FRET signal of test compound - mean TR-FRET signal of no ATP 1% DMSO control) / (mean TR-FRET signal of 1% DMSO control – mean TR-FRET signal of no ATP 1% DMSO control).
(§3) In multi-dose assays, compound activity was calculated via logarithmic interpolation. Concentration-response curves were fitted with a four-parameter logistic nonlinear regression model and the IC50 values for these compounds were calculated in GraphPad Prism 6.
In assay [4] the test system is HEK-293 cells transfected with GFP-TIFA. Briefly: DF-006-induced TIFAsome formation. Particulars: 1 μM DF-006 alone.
Protocol: Curve fitting and IC50 value calculations were performed with GraphPad Prism 6.
HEK-293 cells were purchased from the Cell Bank of The Chinese Academy of Sciences and routinely cultured in DMEM/High-Glucose (Hyclone). For TIFAsome analyses, the coding sequence for the GFP-TIFA fusion protein was cloned into the pcDNA3.1 plasmid. […] Each condition was conducted in sextuplicate. Cells were fixed with 4% paraformaldehyde and stained with DAPI (Shanghai Zhenghuang, Shanghai, China; C1005). Fluorescent images were acquired using a Motic upright fluorescent microscope (PA53 BIO FS6).
Assay [5] has as its target T2, ALPK1. As to the kind of experiment: biochemical.
Protocol: as §1, §2, §3
In assay [6] the target is T2, ALPK1. As to the kind of experiment: Western blotting-based in vitro kinase assay. The class given is biochemical. The conditions noted are these: 20 µM. The method, then:
Compounds were tested at a single final concentration of 20 μM in an in vitro kinase assay including 30 nM recombinant ALPK1 (purified from 293-F cells stimulated with 4% s.t. lysate 4 h before cell lysis) and 1.6 μM His-tagged TIFA in a 20 µl volume. […] An in vitro kinase reaction was conducted at 27 °C for 40 min in the following buffer: 20 mM HEPES pH 7.0, 1 mM TCEP, 10 mM MgCl2, 0.1 mM Na3VO4, 0.6 μM BSA, 5% DMSO and 25 μM ATP. […] After these in vitro kinase reactions, the kinase-substrate mix was fractionated by electrophoresis on denaturing SDS-PAGE gels and transferred to Immobilon-P PVDF membranes (Millipore, MA, USA). Membranes were blocked with 5% milk in TBS with 0.1% Triton-X100. Phosphorylated TIFA were detected by incubating the membrane with an anti-phospho-threonine (#9386, Cell Signaling Technology, Danvers, MA, USA) antibody. […]
compounds used in the Western blotting to measure the ability of compounds to inhibit the ALPK1-mediated phosphorylation of TIFA. (b) Example of the biochemical approach to validate hits from the thermal shift assay screen. ALPK1 binding compounds were tested in triplicate in an in vitro kinase assay at a final concentration of 20 µM, and the inhibitory effect was evaluated by comparing the phosphorylated TIFA level to that for the no compound control after the kinase reaction by Western blotting.
Phosphorylated TIFA was detected using an anti-phospho-theronine antibody. ALPK1 binders fell into three categories: inhibitors (e.g. WXHTS0017849, WXHTS WXHTS0037341), activators (e.g.
WXHTS0086594), and those with no effect (e.g. WXHTS0035788). […]

The subject of another assay is ROSAH patients. Particulars: ROSAH patients ref 3; cited from earlier work.
Where [7] appears, read: read-out: IC50 in TR-FRET assay.

T2 sequence (Q96QP1 whole entry): as above

`Nc1ncnc2c1ncn2[C@@H]1O[C@H](COP(=O)(O)OP(=O)(O)O)[C@@H](O)[C@H]1O` [ADP]: the “increase in melting temperature (Tm)” value on full-length ALPK1 [1] came to 1.4 °C. What is called Kd is the constant that tells how readily two partners part at equilibrium. Low values mean higher affinity, high ones lower affinity. Consider `O=C1NC(=O)/C(=C/c2ccc(-c3ccc(F)cc3O)o2)S1` [AS-252424], for which binding at full-length ALPK1 [2] was characterised by a dissociation constant (Kd) of 1 µM. For the same compound, on full-length ALPK1 [1], the “TSA Tm Increase” value came to 3.4 °C and the “increase in melting temperature (Tm)” value turned out to be 3.4 °C.

Turning to `Nc1ncnc2c1ncn2[C@@H]1O[C@H](COP(=O)(O)OP(=O)(O)OP(=O)(O)O)[C@@H](O)[C@H]1O` [ATP], the “increase in melting temperature (Tm)” value on full-length ALPK1 [1] stood at 1.1 °C. Broadly, the IC50 is the concentration at which inhibition is half-maximal. For the compound `O=C(Nc1nc(Cc2ccccn2)cs1)c1c(F)cc(N2CCNCC2)cc1F` [Compound 60], the IC50 on ALPK1 [3] (read-out: HTRF Assay (IC50)) stood at 1.27 µM. On to `CC(C)(c1ccc(F)cc1)c1csc(NC(=O)c2c(F)cc(N3CCNCC3)cc2F)n1` [Compound 61], for which the IC50 at ALPK1 [3] (read-out: HTRF Assay (IC50)) is 0.023 µM. Still for that read-out and setting: to `COCC(C)(c1ccccc1)c1csc(NC(=O)c2c(F)cc(N3CCNCC3)cc2F)n1` (stereo not shown) [Compound 62] belongs 0.182 µM; to `O=C(Nc1nc(C2(c3ccc(Br)cc3)CCCC2)cs1)c1c(F)cc(N2CCNCC2)cc1F` [Compound 63], 0.437 µM; to `C#CC(C)(c1ccc(F)cc1)c1csc(NC(=O)c2c(F)cc(N3CCNCC3)cc2F)n1` (stereo not shown) [Compound 64], 0.014 µM. The same measure, in the same setting: to `C#CC(C)(c1csc(NC(=O)c2c(F)cc(N3CCNCC3)cc2F)n1)c1ccc(Cl)cc1F` (stereo not shown) [Compound 65] belongs 0.077 µM; to `C#CC(CC)(c1ccc(Cl)cc1)c1csc(NC(=O)c2c(F)cc(N3CCNCC3)cc2F)n1` (stereo not shown) [Compound 66], 0.083 µM. Same read-out and setting: to `C#CC(C)(c1ccc(Cl)c(F)c1)c1csc(NC(=O)c2c(F)cc(N3CCNCC3)cc2F)n1` (stereo not shown) [Compound 67] belongs 0.017 µM; to `C#CC(C)(c1ccc(C)cc1)c1csc(NC(=O)c2c(F)cc(N3CCNCC3)cc2F)n1` (stereo not shown) [Compound 68], 0.013 µM. Turning to `CC#CC(C)(c1ccc(Cl)cc1)c1csc(NC(=O)c2c(F)cc(N3CCNCC3)cc2F)n1` (stereo not shown) [Compound 69], the IC50 on ALPK1 [3] (read-out: HTRF Assay (IC50)) stood at 0.045 µM. Turning to `CC(c1ccccc1)(c1ccc(Cl)cc1)c1csc(NC(=O)c2c(F)cc(N3CCNCC3)cc2F)n1` (stereo not shown) [Compound 70], the IC50 on ALPK1 [3] (read-out: HTRF Assay (IC50)) is 0.577 µM. Still for that read-out and setting: as for `CC(c1ccc(Cl)cc1)(c1csc(NC(=O)c2c(F)cc(N3CCNCC3)cc2F)n1)C1CC1` (stereo not shown) [Compound 71], the figure is 0.025 µM. Turning to `C#CC(C)(c1ccc(OC)cc1)c1csc(NC(=O)c2c(F)cc(N3CCNCC3)cc2F)n1` (stereo not shown) [Compound 72], on ALPK1 [3] (read-out: HTRF Assay (IC50)), the IC50 was determined as 0.018 µM.

For `C#CC(C)(c1ccc(OC(F)F)cc1)c1csc(NC(=O)c2c(F)cc(N3CCNCC3)cc2F)n1` (stereo not shown) [Compound 73], the IC50 at ALPK1 [3] (read-out: HTRF Assay (IC50)) is 0.073 µM. In the case of `COCC(C)(c1ccc(Cl)cc1)c1csc(NC(=O)c2c(F)cc(N3CCNCC3)cc2F)n1` (stereo not shown) [Compound 74], at ALPK1 [3] (read-out: HTRF Assay (IC50)), the IC50 was 0.042 µM. In the case of `CCOCC(C)(c1ccccc1)c1csc(NC(=O)c2c(F)cc(N3CCNCC3)cc2F)n1` (stereo not shown) [Compound 75], on ALPK1 [3] (read-out: HTRF Assay (IC50)), the IC50 was 0.642 µM. Turning to `CC(=O)OCC(F)C1OC(OP(=O)(O)OP(O)(=S)OCC2OC(n3cnc4c(N)ncnc43)C(O)C2O)C(OC(C)=O)C(OC(C)=O)C1OC(C)=O` [DF-006, D-glycero-D-manno-6-fluoro-2,3,4,7-Ac-heptose-1β-S-ADP, reference compound], the “Cells with TIFAsomes /GFP positive cells (%)” value in assay [4] is 50.51% and 61.9% and 51.29% and 50.95% and 60.98%. Turning to `CC1=NN(c2ccc(C)c(C)c2)C(=O)/C1=N\Nc1cccc(-c2cccc(C(=O)O)c2)c1O` [Eltrombopag], the Kd on full-length ALPK1 [2] worked out at 10 µM. At ALPK1 [5], this compound came in with an IC50 of 7.6 µM. The “effect on ALPK1-mediated TIFA phosphorylation” value (“effect” below) on ALPK1 [6] was “inhibit ALPK1 activity”. For the same compound, the “TSA Tm Increase” value at full-length ALPK1 [1] is 3.6 °C. With `Nc1nc(C2(c3ccccc3)CCCC2)cs1` [Hit 1], the IC50 at ALPK1 [3] (setting [7]) was found to be 4 µM. As to `COc1ccc(OC)c2sc(NC(=O)c3c(F)cccc3F)nc12` [Hit 2], the half-maximal inhibitory concentration (IC50) at ALPK1 [3] (setting [7]) came to 11 µM.

At full-length ALPK1 [2], `O=C(O)c1cccnc1Nc1cccc(C(F)(F)F)c1` [Niflumic acid] registered a Kd of 7 µM. Further, the “TSA Tm Increase” value at full-length ALPK1 [1] is 1.8 °C.

Consider `CO[C@@H]1[C@@H](OC(N)=O)[C@@H](O)[C@H](Oc2ccc3c(O)c(NC(=O)c4ccc(O)c(CC=C(C)C)c4)c(=O)oc3c2C)OC1(C)C` [Novobiocin], for which, on full-length ALPK1 [1], the “TSA Tm Increase” value worked out at 1.4 °C.

Compound `O=C(O)c1cc(/N=N/c2ccc(S(=O)(=O)Nc3ccccn3)cc2)ccc1O` [Sulfasalazine] gave a Kd on full-length ALPK1 [2] of 281 µM. In addition, at full-length ALPK1 [1], the “TSA Tm Increase” value came to 2.0 °C. The matching figures for `Brc1c(Br)c(Br)c2n[nH]nc2c1Br` [Tbb]: 265 µM and 3.4 °C. At full-length ALPK1 [2], `Cc1ccc(C(=O)c2cc(O)c(O)c([N+](=O)[O-])c2)cc1` [Tolcapone] returned a Kd of 97 µM. At ALPK1 [6], the “effect” value is listed as “inhibit ALPK1 activity”. In addition, the “TSA Tm Increase” value at full-length ALPK1 [1] was determined as 2.2 °C. For the compound `Nc1c(-c2ccncc2)sc2nc(-c3cccs3)ccc12` [WXHTS0017849], the “effect” value on ALPK1 [6] is listed as “inhibitors”.

As to `CC(=O)Oc1ccccc1-c1cccc(Cn2cccc(C(=O)Nc3ccc(-c4ccccc4)cc3)c2=O)c1` [WXHTS0035788], the “effect” value at ALPK1 [6] is listed as “no effect”.

With `Nc1nc(C2(c3ccccc3)CCCC2)cs1` [WXHTS0037341], the “effect” value on ALPK1 [6] is reported as “inhibitors”. For `Cc1ccc(NC(=O)NCC(O)c2ccc(F)cc2F)cc1Cl` (stereo not shown) [WXHTS0086594], the “effect” value on ALPK1 [6] is recorded as “activators”. Consider “tocilizumab: anti-IL-6 drug given off-label to ROSAH patients”, for which, in the assay on ROSAH patients, the intraocular inflammation result is “improved intraocular inflammation (two of two patients)”.
